In publication PMC8740726 (Proceedings of the National Academy of Sciences of the …, 2021):

Assays:
[1] = target: T1, DPS (deoxypodophyllotoxin synthase) (Sinopodophyllum hexandrum, UniProt A0A0N9HQ36); conditions: co-substrate; Fe bound, bidentate, offline mode; pH 8.5
[2] = target: T1, DPS (deoxypodophyllotoxin synthase); conditions: coproduct at Fe active site, with Fe and (±)-yatein; pH 7.5

T1 sequence (A0A0N9HQ36 whole entry): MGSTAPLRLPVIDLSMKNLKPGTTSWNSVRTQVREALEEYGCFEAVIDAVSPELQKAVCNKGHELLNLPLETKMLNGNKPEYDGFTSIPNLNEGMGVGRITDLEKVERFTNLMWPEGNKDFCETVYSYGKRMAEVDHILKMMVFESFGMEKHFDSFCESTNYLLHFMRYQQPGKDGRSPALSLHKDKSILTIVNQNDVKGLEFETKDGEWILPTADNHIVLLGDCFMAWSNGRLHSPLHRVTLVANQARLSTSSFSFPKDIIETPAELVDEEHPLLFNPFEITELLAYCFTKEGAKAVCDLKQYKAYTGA

Structure (SMILES) | X-ray crystal structure, 2.09 A [1] | X-ray crystal structure, 2.05 A [2]
O=C(O)CCC(=O)C(=O)O [2OG] | Overall structure of the DPS•Fe•2OG ternary complex (Protein Data Bank identification: 7E37) | 
O=C(O)CCC(=O)O [succinate] |  | The substrate (−)-6a and the coproduct succinate are shown in stick representation
